Test results as given in PubChem BioAssay AID1918991 (Molecular Pharmacology Branch, DTP, NCI, 2023).

Tested on: 186277-243-T-J2-PDC complex spheroid growth
Assay: Anticancer human tumor 186277-243-T-J2-PDC patient-derived colon adenocarcinoma cell line growth inhibition [AhR]
Settings: for IC50: curve of first compound; for viability, T/C: stronger effect = lower value
Outline: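 Agents were dosed in half-log steps down from roughly clinical Cmax, or from 10 microM where Cmax was unknown, alone and with AhR antagonists. Read-out: percent test/control growth of tumor spheroids containing HUVEC and MSC stromal cells.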

[1] = second compound 0.1 µM, first compound 0.0316 µM
[2] = second compound 0.1 µM, first compound 0.1 µM
[3] = second compound 0.1 µM, first compound 0.316 µM
[4] = second compound 0.1 µM, first compound 1 µM
[5] = second compound 0.1 µM, first compound 3.16 µM
[6] = second compound 0.1 µM, first compound 10 µM
[7] = second compound 0.316 µM, first compound 0.0316 µM
[8] = second compound 0.316 µM, first compound 0.1 µM
[9] = second compound 0.316 µM, first compound 0.316 µM
[10] = second compound 0.316 µM, first compound 1 µM
[11] = second compound 0.316 µM, first compound 3.16 µM
[12] = second compound 0.316 µM, first compound 10 µM
[13] = second compound 1 µM, first compound 0.0316 µM
[14] = second compound 1 µM, first compound 0.1 µM
[15] = second compound 1 µM, first compound 0.316 µM
[16] = second compound 1 µM, first compound 1 µM
[17] = second compound 1 µM, first compound 3.16 µM
[18] = second compound 1 µM, first compound 10 µM
[19] = second compound 3.16 µM, first compound 0.0316 µM
[20] = second compound 3.16 µM, first compound 0.1 µM
[21] = second compound 3.16 µM, first compound 0.316 µM
[22] = second compound 3.16 µM, first compound 1 µM
[23] = second compound 3.16 µM, first compound 3.16 µM
[24] = second compound 3.16 µM, first compound 10 µM
[25] = second compound 10 µM, first compound 0.0316 µM
[26] = second compound 10 µM, first compound 0.1 µM
[27] = second compound 10 µM, first compound 0.316 µM
[28] = second compound 10 µM, first compound 1 µM
[29] = second compound 10 µM, first compound 3.16 µM
[30] = second compound 10 µM, first compound 10 µM
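Further: spheroids exposed to compounds for seven days before the viability read.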
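Wherever viability, T/C is given: luminescent signal used as a stand-in for viable cell amount; 100% = DMSO vehicle control wells.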

**Q.** With CC(C)c1c(-c2ccccc2)nc2c(C#N)c[nH]n2c1=O + Cc1ccccc1N=Nc1ccc(NC(=O)c2ccnn2C)c(C)c1 as the compound, how does the IC50 (second compound 0.1 µM) read?
**A.** > 10000 nM

**Q.** What about the IC50 (second compound 0.316 µM) of the same compound?
**A.** > 10000 nM

**Q.** What about the IC50 (second compound 1 µM) of the same compound?
**A.** > 10000 nM

**Q.** What about the IC50 (second compound 3.16 µM) of the same compound?
**A.** > 10000 nM

**Q.** And the IC50 (second compound 10 µM)?
**A.** > 10000 nM

**Q.** And the viability, T/C [1]?
**A.** 97.4%

**Q.** What about the viability, T/C [2] of the same compound?
**A.** 110%

**Q.** What about the viability, T/C [3] of the same compound?
**A.** 104%

**Q.** And the viability, T/C [4]?
**A.** 105%

**Q.** What about the viability, T/C [5] of the same compound?
**A.** 109%

**Q.** What about the viability, T/C [6] of the same compound?
**A.** 97.5%

**Q.** What about the viability, T/C [7] of the same compound?
**A.** 103%

**Q.** And the viability, T/C [8]?
**A.** 104%

**Q.** And the viability, T/C [9]?
**A.** 103%

**Q.** And the viability, T/C [10]?
**A.** 98%

**Q.** What about the viability, T/C [11] of the same compound?
**A.** 112%

**Q.** What about the viability, T/C [12] of the same compound?
**A.** 98%

**Q.** What about the viability, T/C [13] of the same compound?
**A.** 98.9%

**Q.** What about the viability, T/C [14] of the same compound?
**A.** 106%

**Q.** What about the viability, T/C [15] of the same compound?
**A.** 115%

**Q.** And the viability, T/C [16]?
**A.** 96.4%

**Q.** And the viability, T/C [17]?
**A.** 98.3%

**Q.** And the viability, T/C [18]?
**A.** 104%

**Q.** What about the viability, T/C [19] of the same compound?
**A.** 95.2%

**Q.** And the viability, T/C [20]?
**A.** 108%

**Q.** And the viability, T/C [21]?
**A.** 94.3%

**Q.** And the viability, T/C [22]?
**A.** 99.7%

**Q.** And the viability, T/C [23]?
**A.** 99.7%

**Q.** What about the viability, T/C [24] of the same compound?
**A.** 98.7%

**Q.** What about the viability, T/C [25] of the same compound?
**A.** 102%

**Q.** And the viability, T/C [26]?
**A.** 97.2%

**Q.** What about the viability, T/C [27] of the same compound?
**A.** 92.6%

**Q.** And the viability, T/C [28]?
**A.** 101%

**Q.** And the viability, T/C [29]?
**A.** 85.8%

**Q.** And the viability, T/C [30]?
**A.** 90.1%

**Q.** What does the source list for CC1COCCN1c1cc(-c2ccnn2C)c2ccnc(-c3ccn[nH]3)c2n1 (stereo not given) + Cc1ccccc1N=Nc1ccc(NC(=O)c2ccnn2C)c(C)c1?
**A.** IC50 (second compound 0.1 µM): 81.8 nM; IC50 (second compound 0.316 µM): 84.5 nM; IC50 (second compound 1 µM): 88.8 nM; IC50 (second compound 3.16 µM): 75.2 nM; IC50 (second compound 10 µM): 63.6 nM; viability, T/C (second compound 0.1 µM, first compound 0.00316 µM): 99.9%; viability, T/C (second compound 0.1 µM, first compound 0.01 µM): 105%; viability, T/C [1]: 96.7%; viability, T/C [2]: 40.1%; viability, T/C [3]: 10.2%; viability, T/C [4]: 8.07%; viability, T/C (second compound 0.316 µM, first compound 0.00316 µM): 97.5%; viability, T/C (second compound 0.316 µM, first compound 0.01 µM): 102%; viability, T/C [7]: 93.9%; viability, T/C [8]: 42.4%; viability, T/C [9]: 9.54%; viability, T/C [10]: 7.22%; viability, T/C (second compound 1 µM, first compound 0.00316 µM): 98.8%; viability, T/C (second compound 1 µM, first compound 0.01 µM): 106%; viability, T/C [13]: 100%; viability, T/C [14]: 44.1%; viability, T/C [15]: 9.5%; viability, T/C [16]: 7.1%; viability, T/C (second compound 3.16 µM, first compound 0.00316 µM): 97.7%; viability, T/C (second compound 3.16 µM, first compound 0.01 µM): 104%; viability, T/C [19]: 92.6%; viability, T/C [20]: 35.9%; viability, T/C [21]: 9.1%; viability, T/C [22]: 7.15%; viability, T/C (second compound 10 µM, first compound 0.00316 µM): 77%; viability, T/C (second compound 10 µM, first compound 0.01 µM): 91.9%; viability, T/C [25]: 74.3%; viability, T/C [26]: 33.7%; viability, T/C [27]: 10.4%; viability, T/C [28]: 7.02%

**Q.** Which IC50 (second compound 0.1 µM) does the source give for COc1ccc([C@@H](O)c2cc(-c3ncnc4cc(N5CCOCC5)ccc34)c(F)cc2Cl)nn1 + Cc1ccccc1N=Nc1ccc(NC(=O)c2ccnn2C)c(C)c1 here?
**A.** > 10000 nM

**Q.** And the IC50 (second compound 0.316 µM)?
**A.** > 10000 nM

**Q.** And the IC50 (second compound 1 µM)?
**A.** > 10000 nM

**Q.** And the IC50 (second compound 3.16 µM)?
**A.** > 10000 nM

**Q.** And the IC50 (second compound 10 µM)?
**A.** 9260 nM

**Q.** What about the viability, T/C [1] of the same compound?
**A.** 100%

**Q.** What about the viability, T/C [2] of the same compound?
**A.** 98%

**Q.** And the viability, T/C [3]?
**A.** 92.9%

**Q.** What about the viability, T/C [4] of the same compound?
**A.** 80.2%

**Q.** And the viability, T/C [5]?
**A.** 89.6%

**Q.** And the viability, T/C [6]?
**A.** 55.8%

**Q.** What about the viability, T/C [7] of the same compound?
**A.** 96.5%

**Q.** What about the viability, T/C [8] of the same compound?
**A.** 104%

**Q.** What about the viability, T/C [9] of the same compound?
**A.** 93.6%

**Q.** And the viability, T/C [10]?
**A.** 80%

**Q.** What about the viability, T/C [11] of the same compound?
**A.** 86.4%

**Q.** And the viability, T/C [12]?
**A.** 52.2%

**Q.** What about the viability, T/C [13] of the same compound?
**A.** 96.5%

**Q.** And the viability, T/C [14]?
**A.** 101%

**Q.** What about the viability, T/C [15] of the same compound?
**A.** 101%

**Q.** What about the viability, T/C [16] of the same compound?
**A.** 98%

**Q.** What about the viability, T/C [17] of the same compound?
**A.** 104%

**Q.** What about the viability, T/C [18] of the same compound?
**A.** 62.7%

**Q.** And the viability, T/C [19]?
**A.** 97.1%

**Q.** And the viability, T/C [20]?
**A.** 89.4%

**Q.** And the viability, T/C [21]?
**A.** 89.7%

**Q.** And the viability, T/C [22]?
**A.** 79.8%

**Q.** What about the viability, T/C [23] of the same compound?
**A.** 76.2%

**Q.** And the viability, T/C [24]?
**A.** 54.2%

**Q.** What about the viability, T/C [25] of the same compound?
**A.** 76.3%

**Q.** What about the viability, T/C [26] of the same compound?
**A.** 81.9%

**Q.** And the viability, T/C [27]?
**A.** 91%

**Q.** And the viability, T/C [28]?
**A.** 80.5%

**Q.** What about the viability, T/C [29] of the same compound?
**A.** 90.9%

**Q.** What about the viability, T/C [30] of the same compound?
**A.** 47.5%

**Q.** Which results are given for O=C(C=Cn1cnc(-c2cc(C(F)(F)F)cc(C(F)(F)F)c2)n1)NNc1cnccn1 + Cc1ccccc1N=Nc1ccc(NC(=O)c2ccnn2C)c(C)c1?
**A.** IC50 (second compound 0.1 µM): 494 nM; IC50 (second compound 0.316 µM): 506 nM; IC50 (second compound 1 µM): 540 nM; IC50 (second compound 3.16 µM): 468 nM; IC50 (second compound 10 µM): 424 nM; viability, T/C (second compound 0.1 µM, first compound 0.00949 µM): 98.7%; viability, T/C (second compound 0.1 µM, first compound 0.03 µM): 107%; viability, T/C (second compound 0.1 µM, first compound 0.0949 µM): 101%; viability, T/C (second compound 0.1 µM, first compound 0.3 µM): 75.4%; viability, T/C (second compound 0.1 µM, first compound 0.949 µM): 16.8%; viability, T/C (second compound 0.1 µM, first compound 3 µM): 8.98%; viability, T/C (second compound 0.316 µM, first compound 0.00949 µM): 94.2%; viability, T/C (second compound 0.316 µM, first compound 0.03 µM): 102%; viability, T/C (second compound 0.316 µM, first compound 0.0949 µM): 108%; viability, T/C (second compound 0.316 µM, first compound 0.3 µM): 77.7%; viability, T/C (second compound 0.316 µM, first compound 0.949 µM): 16.9%; viability, T/C (second compound 0.316 µM, first compound 3 µM): 7.87%; viability, T/C (second compound 1 µM, first compound 0.00949 µM): 92.9%; viability, T/C (second compound 1 µM, first compound 0.03 µM): 106%; viability, T/C (second compound 1 µM, first compound 0.0949 µM): 108%; viability, T/C (second compound 1 µM, first compound 0.3 µM): 82.6%; viability, T/C (second compound 1 µM, first compound 0.949 µM): 18.7%; viability, T/C (second compound 1 µM, first compound 3 µM): 8.79%; viability, T/C (second compound 3.16 µM, first compound 0.00949 µM): 96.4%; viability, T/C (second compound 3.16 µM, first compound 0.03 µM): 88.4%; viability, T/C (second compound 3.16 µM, first compound 0.0949 µM): 106%; viability, T/C (second compound 3.16 µM, first compound 0.3 µM): 71.7%; viability, T/C (second compound 3.16 µM, first compound 0.949 µM): 16.4%; viability, T/C (second compound 3.16 µM, first compound 3 µM): 10.3%; viability, T/C (second compound 10 µM, first compound 0.00949 µM): 90.2%; viability, T/C (second compound 10 µM, first compound 0.03 µM): 88%; viability, T/C (second compound 10 µM, first compound 0.0949 µM): 83.7%; viability, T/C (second compound 10 µM, first compound 0.3 µM): 63%; viability, T/C (second compound 10 µM, first compound 0.949 µM): 20.5%; viability, T/C (second compound 10 µM, first compound 3 µM): 12.7%
